Entries after “also recorded” stand apart in the source; their conditions may differ.
Tests used:
transgenic CD4^+ T cells = assay: Selection of transgenic CD4^+ T cells in TCR^TgTCRα^−→H-2M^−Ii^− radiation chimeras; conditions: mouse, in vivo
Source text: Also disclosed by the inventors is the development of transgenic CD4^+ T cells in chimeras made by reconstituting H-2M^−Ii^− mice with the bone marrow from TCR^TgTCRα^− mice (TCR^TgTCRα^−→H-2M^−Ii^− chimeras). The development of thymocytes in such chimeras is arrested at the CD4^+CD8^+ stage despite the presence of selecting wild type A^b/self-peptide complexes on bone marrow-derived dendritic cells. […] This in vivo model relates that, in contrast to the reaggregation cultures (Yastumo et al., 2000), radioresistant thymic epithelial cells are required to provide an agonist signal that induces thymocyte differentiation towards CD4^+ lineage in vivo.

B16 melanoma cells = assay: Protection against B16 melanoma transfected with A^bPCC50V54A-YFP in TCR^Tgα^−H-2M^−Ii^− mice; format: in vivo, mouse
Method: Protection of a mouse melanoma model. Peptide selected CD4^+ T cells are shown to be functional and protect mice from melanoma tumor cells. To determine if peptide selected T lymphocytes are able to mount an effective immune response in vivo the ability of peptide-selected CD4^+ cells to protect mice from melanoma was assessed. Melanoma B16-F1 was transfected with constructs encoding the A^bβPCC50V54A chain tagged with yellow fluorescent protein (YFP) and A^bα chain. These transfectants weakly stimulated TCR^Tgα^− CD4^+ cells from wild type mice. TCR^Tgα^−H2-M^−Ii^− mice received subcutaneous injection of B16 melanoma transfectants. At the same time, half of these mice also received selecting agonist peptide. After 12 days, animals were sacrificed, and the phenotype of tumor cells and peripheral CD4^+ T cells in draining lymph nodes was examined. As shown in FIGS. 16A-E, only mice that received selecting peptide accumulated peripheral CD4^+ T cells. These cells responded to tumor as assessed by upregulation of CD69 and downregulation of CD62L. Most importantly, tumors in mice that received a selecting peptide were much smaller (4-6 times) and were composed of melanoma cells without surface expression of antigenic complex (only about ¼ of cells were YFP^+ compared to more then ¾ in mice not treated with the selecting peptide). […]

peripheral CD4^+ T cells = assay: Peptide injection into thymectomized TCR^TgTCRα^−H2-M^−Ii^− mice; format: in vivo, mouse; conditions: two weeks after injection
Source text: Since the selecting peptide is an agonist, in a specific embodiment of the present invention the observed phenomenon results from the expansion of a small number of peripheral transgenic CD4^+ T cells rather than from induced positive selection. To test this possibility, two types of experiments have been performed. In the first experiment, the PCC TgTCRα^−H-2M^−Ii^− mice were thymectomized and then injected with the PCC50V54A peptide. Two weeks after injection, these mice were sacrificed and the number of peripheral CD4^+ T cells was counted. […] After 10 days, recipient mice were sacrificed and the presence of transgenic CD4^+ T cells in the transplanted thymus and lymph nodes was determined by FACS analysis. […]
Since the selecting peptide is an agonist, one could argue that the observed phenomenon results from the expansion of a small number of peripheral transgenic CD4^+ T cells rather than from induced positive selection (Martin & Bevan, 1997). […] Two weeks after injection, the mice were sacrificed and the number of peripheral CD4^+ T cells was counted. […] After 10 days, recipient mice were sacrificed and the presence of transgenic CD4^+ T cells in the transplanted thymus and host lymph nodes was determined by FACS analysis. […]

transgenic thymocytes = assay: Fetal thymic organ cultures (FTOC) from TgTCRα^−H-2M^−Ii^− mice with peptide; format: cell-based, mouse; conditions: continuous delivery of peptide at low concentration
Source text: The TgTCRα^−H-2M^−Ii^− system enables the visualization of thymocyte positive selection in real time and in the native intrathymic environment. An in vitro system was setup where the transgenic thymocytes undergo efficient positive selection and commit to the CD4^+ lineage. […] These observations agreed with the previous reports in which CD8^+, but not CD4+, T cells could be positively selected by the specific peptide in FTOCs (Kenty et al., 1998; Liblau et al, 1996). Therefore, neonatal thymic organ cultures (NTOC) were established from TgTCRα^−-H-2M^−Ii^− neonates. The neonates received a single i.p. injection of the PCC50V54A peptide just after birth and were sacrificed 24 hours later when their thymuses were harvested.

## AEGFSYTVANKAKGIT [PCC50V54A, analog of pigeon cytochrome C peptide PCC(43-58)]
Transgenic CD4^+ T cells
  appearance / positive selection of mature CD4^+ T cells in chimeras: appeared only after injection
B16 melanoma cells; 20 μg i.p.
  tumor mass / size relative to mice without selecting peptide: 4-6 times smaller
B16 melanoma cells; more then ¾ YFP^+ in mice not treated
  expression of A^bPCC50V54A-YFP on remaining tumor cells: do not express A^bPCC50V54A-YFP
Peripheral CD4^+ T cells; 50 μg
  total number of lymph node cells: 11.5×10^6±1.6
Peripheral CD4^+ T cells; versus non-injected thymectomized controls
  number of peripheral CD4 transgenic T cells: very low and did not increase; also recorded: very few CD4^+ peripheral T cells
Transgenic thymocytes
  lineage commitment of thymocytes in FTOC: the majority of thymocytes committed to the CD8 lineage

— patent US20030021796A1, “Method of enhancing T cell immunity by selection of antigen specific T cells” (priority 2001, published 2003)
